Source: patent publication EP4647428A1, “COMPOUND CONTAINING 2-METHYL-2-(3-(PIPERIDIN-3-YL)PHENOXY)-2-METHYLPROPANAMIDE SKELETON” (Jiangsu Mingsheng Jutai Biotechnology Co. Ltd, priority 2023, dated 2024)

System: SW480
Assay: CCK8 cell inhibition test on SW480 cells
Assay type: cell-based
Conditions: CCK-8, SW480 cells, 24 hours incubation at 37°C, compound 20 µM to 0.15625 µM in DMEM (2% FBS)
Method: Cells were digested, counted, and plated in a 96-well plate (flat-bottomed, transparent) with 10,000 cells/100 µl DMEM (10% FBS) per well . • 2. Observe the cell status on the next day and start adding drugs after the cells have fully adhered to the wall; • 3. Dilute the compound in DMEM (2% FBS) in a serial dilution format to concentrations of 20 µM, 10 µM, 5 µM, 2.5 µM, 1.25 µM, 0.625 µM, 0.3125 µM, 0.15625 µM, and 0 µM (with equal volume of DMSO). • 4. Add 100 µl of the above compounds at different concentrations to each well. Repeat for each concentration gradient in duplicate. Leave three blank wells (add only DMEM 2% FBS culture medium without cells) . • 5. Incubate at 37°C for 24 hours . • 6. Add 10 µl of CCK-8 Enhanced Solution to each well. Since the amount of CCK-8 added to each well is relatively small, there may be errors due to the reagent sticking to the well wall. It is recommended to gently tap the culture plate after adding the reagent to help mix it. • 7. Incubate in the incubator for 0.5-4 hours: The amount of formazan formed varies depending on the cell type. In most cases, incubation for 1 hour is sufficient. If color development is insufficient, continue incubation to confirm optimal conditions. • 8. Measure the absorbance at 450nm and 600nm (excluding interference from the reagent background color and the absorbance of the well plate itself); • 9. The final absorbance value is OD450nm-OD600nm, and the inhibition rate is calculated; Inhibition rate = [(Ac−As)/(Ac−Ab)] × 100% [formula] • As: absorbance of the experimental well (culture medium containing cells, CCK-8, and drug to be tested); • Ac: absorbance of control wells (culture medium containing cells, CCK-8, and no test drug); • Ab: absorbance of blank wells (culture medium without cells, test drugs, or CCK-8).

Row | Compound | IC50 (Homo sapiens) | also measured
1 | CC(C)(Oc1cccc(C2CCCN(C(=O)NCc3ccc(-c4cn[nH]c4)cc3)C2)c1)C(=O)NCC(=O)N1CCCC1CN (centres unmarked) [Compound 115-020, N-(4-(1H-pyrazol-4-yl)benzyl)-3-(3-((1-((2-(2-(aminomethyl)pyrrolidin-1-yl)-2-oxoethyl)amino)-2-methyl-1-oxopropanoyl)oxy)phenyl)piperidine-1-carboxamide] | – | SW480 IC50(µM): Inactive
2 | CC(C)(Oc1cccc(C2CCCN(C(=O)NCCc3ccc(-c4cn[nH]c4)cc3)C2)c1)C(=O)NCC(=O)N1CCCC1CN (centres unmarked) [Compound 115-021, N-(4-(1H-pyrazol-4-yl)phenethyl)-3-(3-((1-((2-(2-(aminomethyl)pyrrolidin-1-yl)-2-oxoethyl)amino)-2-methyl-1-oxopropanoyl)oxy)phenyl)piperidine-1-carboxamide] | – | SW480 IC50(µM): Inactive
3 | CC(C)(Oc1cccc(C2CCCN(S(=O)(=O)c3cccc(-c4cn[nH]c4)c3)C2)c1)C(=O)NS(=O)(=O)c1ccc(C(F)(F)F)cc1 (centres unmarked) [Compound 115-025, 2-(3-(1-((3-(1H-pyrazol-4-yl)phenyl)sulfonyl)piperidin-3-yl)phenoxy)-2-methyl-N-((4-(trifluoromethyl)phenyl)sulfonyl)propionamide] | – | SW480 IC50(µM): Inactive
4 | CC(C)(Oc1cccc(C2CCCN(S(=O)(=O)c3ccc(-c4cn[nH]c4)cc3)C2)c1)C(=O)NS(=O)(=O)c1ccc(C(F)(F)F)cc1 (centres unmarked) [Compound 115-026, 2-(3-(1-((4-(1H-pyrazol-4-yl)phenyl)sulfonyl)piperidin-3-yl)phenoxy)-2-methyl-N-((4-(trifluoromethyl)phenyl)sulfonyl)propionamide] | – | SW480 IC50(µM): Inactive
5 | CC(C)(Oc1cccc(C2CCCN(C(=O)c3ccc(-c4cn[nH]c4)cc3)C2)c1)C(=O)NCC(=O)N1CCCC1CN (centres unmarked) [Compound 115-027, 2-(3-(1-(4-(1H-pyrazol-4-yl)benzoyl)piperidin-3-yl)phenoxy)-N-(2-(2-(aminomethyl)pyrrolidin-1-yl)-2-oxoethyl)-2-methylpropanamide] | 23.1 µM | –
6 | CC(C)(Oc1cccc(C2CCCN(C(=O)Cc3ccc(-c4cn[nH]c4)cc3)C2)c1)C(=O)NCC(=O)N1CCCC1CN (centres unmarked) [Compound 115-028, 2-(3-(1-(2-(4-(1H-pyrazol-4-yl)phenyl)acetyl)piperidin-3-yl)phenoxy)-N-(2-(2-(aminomethyl)pyrrolidin-1-yl)-2-oxoethyl)-2-methylpropanamide] | 15.7 µM | –
7 | CC(C)(Oc1cccc(C2CCCN(C(=O)CCc3ccc(-c4cn[nH]c4)cc3)C2)c1)C(=O)NCC(=O)N1CCCC1CN (centres unmarked) [Compound 115-029, 2-(3-(1-(3-(4-(1H-pyrazol-4-yl)phenyl)propionyl)piperidin-3-yl)phenoxy)-N-(2-(2-(aminomethyl)pyrrolidin-1-yl)-2-oxoethyl)-2-methylpropionamide] | 20.8 µM | –
8 | N-(2-((S)-2-(2-aminoethyl)pyrrolidin-1-yl)-2-oxoethyl)-2-(3-(1-((4'-isopropyl-[1,1'-biphenyl]-3-yl)sulf onylpiperidin-3-yl)phenoxy)-2-methylpropanamide) [Compound 115-014] | – | IC50: 52.9 µM

Continued, in another order:

Row | IC50 (Homo sapiens) | Compound | also measured
9 | 2.81 µM | CC(C)c1ccc(-c2cccc(S(=O)(=O)N3CCCC(c4cccc(OC(C)(C)C(=O)NS(=O)(=O)c5ccc(C(F)(F)F)cc5)c4)C3)c2)cc1 (centres unmarked) [Compound 115, reference compound] | –
10 | 3.12 to 6.25 µM | CC(C)c1ccc(-c2cccc(S(=O)(=O)N3CCCC(c4cccc(OC(C)(C)C(=O)NCC(=O)N5CCC[C@@H]5CN)c4)C3)c2)cc1 (some centres unmarked) [Compound 115-011] | –
11 | 3.12 µM | CC(C)c1ccc(-c2cccc(S(=O)(=O)N3CCCC(c4cccc(OC(C)(C)C(=O)NCC(=O)N5CC[C@H](CN)C5)c4)C3)c2)cc1 (some centres unmarked) [Compound 115-013] | –
12 | 10.6 µM | CC(C)c1ccc(-c2cccc(S(=O)(=O)N3CCCC(c4cccc(OC(C)(C)C(=O)NS(=O)(=O)N5CCC[C@@H]5CN)c4)C3)c2)cc1 (stereo partly drawn) [Compound 115-017, N-(2-(R)-(Aminomethyl)pyrrolidin-1-yl)sulfonyl)-2-(3-(1-((4'-isopropyl-[1,1'-biphenyl]-3-yl)sulfonylpiperidin-3-yl)phenoxy)-2-methylpropionamide] | –
13 | 9.71 µM | CC(C)n1cc(-c2cccc(S(=O)(=O)N3CCCC(c4cccc(OC(C)(C)C(=O)NCC(=O)N5CCCC5CN)c4)C3)c2)cn1 (centres unmarked) [Compound 115-022, N-(2-(2-(Aminomethyl)pyrrolidin-1-yl)-2-oxoethyl)-2-(3-(1-((3-(1-isopropyl-1H-pyrazol-4-yl)phenyl)sulfonyl)piperidin-3-yl)phenoxy)-2-methylpropanamide] | –
14 | 30.5 µM | CC(C)(Oc1cccc(C2CCCN(S(=O)(=O)c3cccc(-c4cn[nH]c4)c3)C2)c1)C(=O)NCC(=O)N1CCCC1CN (centres unmarked) [Compound 115-023, 2-(3-(1-((3-(1H-pyrazol-4-yl)phenyl)sulfonyl)piperidin-3-yl)phenoxy)-N-(2-(2-(aminomethyl)pyrrolidin-1-yl)-2-oxoethyl)-2-methylpropanamide] | –
15 | 11.1 µM | CC(C)n1cc(-c2cccc(S(=O)(=O)N3CCCC(c4cccc(OC(C)(C)C(=O)NS(=O)(=O)c5ccc(C(F)(F)F)cc5)c4)C3)c2)cn1 (centres unmarked) [Compound 115-024, 2-(3-(1-((3-(1-isopropyl-1H-pyrazol-4-yl)phenyl)sulfonyl)piperidin-3-yl)phenoxy)-2-methyl-N-((4-(trifluoromethyl)phenyl)sulfonyl)propionamide] | –
16 | 3.12 to 6.25 µM | CC(C)c1ccc(-c2ccc(C(=O)N3CCCC(c4cccc(OC(C)(C)C(=O)NCC(=O)N5CCCC5CN)c4)C3)cc2)cc1 (centres unmarked) [Compound 115-030] | –
17 | 6.99 µM | CC(C)c1ccc(-c2ccc(CC(=O)N3CCCC(c4cccc(OC(C)(C)C(=O)NCC(=O)N5CCCC5CN)c4)C3)cc2)cc1 (centres unmarked) [Compound 115-031, N-(2-(2-(Aminomethyl)pyrrolidin-1-yl)-2-oxoethyl)-2-(3-(1-(2-(4'-isopropyl-[1,1'-biphenyl]-4-yl)acetyl)piperidin-3-yl)phenoxy)-2-methylpropanamide] | –
18 | ≤ 2.65 µM | CC(C)c1ccc(-c2cccc(S(=O)(=O)N3CCC=C(c4cccc(OC(C)(C)C(=O)NCC(=O)N5CCCC5CN)c4)C3)c2)cc1 (centres unmarked) [Compound 115-049, N-(2-(2-(Aminomethyl)pyrrolidin-1-yl)-2-oxoethyl)-2-(3-(1-((4'-isopropyl-[1,1'-biphenyl]-3-yl)sulfonyl)-1,2,5,6-tetrahydropyridin-3-yl)phenoxy)-2-methylpropanamide] | –
19 | ≤ 2.74 µM | CC(C)c1ccc(-c2cccc(S(=O)(=O)N3CCCC(c4cccc(OC(C)(C)C(=O)NCC(=O)N5CCCC5CN)c4)C3)n2)cc1 (centres unmarked) [Compound 115-052, N-(2-(2-(aminomethyl)pyrrolidin-1-yl)-2-oxoethyl)-2-(3-(1-((6-(4-isopropylphenyl)pyridin-2-yl)sulfonyl)piperidin-3-yl)phenoxy)-2-methylpropanamide] | –
20 | 4.06 µM | CC(C)c1ccc(-c2cncc(S(=O)(=O)N3CCCC(c4cccc(OC(C)(C)C(=O)NCC(=O)N5CCCC5CN)c4)C3)c2)cc1 (centres unmarked) [Compound 115-055, N-(2-(2-(Aminomethyl)pyrrolidin-1-yl)-2-oxoethyl)-2-(3-(1-((5-(4-isopropylphenyl)pyridin-3-yl)sulfonyl)piperidin-3-yl)phenoxy)-2-methylpropanamide] | –
